Measurements reported in patent US10166412B2, “Skin lightening composition comprising 4-hexylresorcinol and ilomastat” (Conopco, Inc., priority 2014, dated 2019).

Experiments:
[1] = tested on: primary human melanocytes; assay: Melanin content assay in primary human melanocytes; format: cell-based; conditions: for inhibition at 1 µM / inhibition at 10 µM: Homo sapiens, Melanocyte, 72 hrs treatment, corrected for cell numbers, read-out: Average % inhibition of cellular melanin; for reduction of melanin content (in words): primary human melanocytes
Procedure: (i) Cell Cultures: • Neonatal foreskin primary human melanocytes were procured from Life Technologies, USA. Cells were grown in Medium 254 supplemented with human melanocyte growth supplement-2 and maintained at 37° C. in a humidified incubator with 5% CO2 atmosphere. The maintenance and sub culturing of cells were carried out as per the manufacturer's instructions. Cells between passages 3-6 were used for experimentation.
(ii) Active Addition: • Cells were seeded at a density of 5×10^4/well in a 24 well plate in Melanocyte Growth Media (MGM) and incubated for 24 hrs at 37° C./5% CO2. Actives were added to cells along with relevant controls. 72 hrs post active treatment, cell viability was determined using the Calcein method followed by measurement of cellular melanin content (described in below sections).
(iii) Cell Viability Assay: • Briefly, spent media was removed and cells washed once with 0.2 ml of 1× PBS-Ca—Mg solution. Fresh 1 μM calcein-AM in PBS buffer was added to each well. Plates were incubated for 30 min. at 37° C. in a CO2 incubator. Calcein fluorescence was then measured (excitation at 490 nm and emission at 520 nm) in TECAN M1000 plate reader.
(iv) Melanin Content Assay: • After Calcein measurements, cultures were rinsed with PBS (1×) and lysed for 1 hour at 60° C. in a shaker incubator using NaOH/DMSO mix. Melanin content was measured in a Tecan plate reader (405 nm filter), corrected for cell numbers and represented as % inhibition.

Tyrosinase enzyme = target: T1, Tyrosinase enzyme (Homo sapiens, UniProt P14679); assay: In vitro human tyrosinase activity assay (melanocytic lysate); format: biochemical
T1 construct: Primary human melanocytic lysate was used as a source of Tyrosinase enzyme; endogenous in cells; host or cells: primary human melanocytes (lysate)
T1 sequence (P14679 19-529): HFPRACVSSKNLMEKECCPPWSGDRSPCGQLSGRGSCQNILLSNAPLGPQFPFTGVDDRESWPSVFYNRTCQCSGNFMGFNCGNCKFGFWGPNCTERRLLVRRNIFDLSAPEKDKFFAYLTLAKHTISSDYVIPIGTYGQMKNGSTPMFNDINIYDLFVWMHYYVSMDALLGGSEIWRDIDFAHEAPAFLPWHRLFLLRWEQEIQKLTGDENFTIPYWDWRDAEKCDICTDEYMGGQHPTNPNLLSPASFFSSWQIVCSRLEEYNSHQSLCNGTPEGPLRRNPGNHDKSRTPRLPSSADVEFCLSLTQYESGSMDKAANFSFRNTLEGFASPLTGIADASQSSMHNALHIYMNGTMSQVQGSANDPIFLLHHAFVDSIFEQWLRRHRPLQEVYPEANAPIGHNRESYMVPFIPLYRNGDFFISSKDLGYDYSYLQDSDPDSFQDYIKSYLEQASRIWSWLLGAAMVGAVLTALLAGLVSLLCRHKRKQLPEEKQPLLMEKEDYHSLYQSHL
Procedure: (v) In Vitro Human Tyrosinase Activity Assay: • Primary human melanocytic lysate was used as a source of Tyrosinase enzyme. Human melanocytic lysate and test actives (at different concentrations) were incubated together for 15 mins, prior to addition of Tyrosine/DOPA substrate mix. Assay plate was then incubated at 37° C. for ˜14-16 hrs. Optical Density was measured at 405 nm and % inhibition of Tyrosinase activity calculated. Results

| SMILES | inhibition at 1 µM [1] [%] | inhibition at 10 µM [1] [%] | reduction of melanin content (in words) ([1]; concentration not specified) | direct modulation / inhibition of Tyrosinase enzyme activity (in words) (Tyrosinase enzyme) | inhibition at 1 µM (Tyrosinase enzyme; 1 μM) [%] | inhibition at 5 µM (Tyrosinase enzyme; 5 μM) [%] | inhibition at 10 µM (Tyrosinase enzyme; 10 μM) [%] | inhibition at 50 µM (Tyrosinase enzyme; 50 μM) [%] | reduction of melanin content (in words) ([1]; at 1 μM) | reduction of melanin content (in words) ([1]; at 10 μM) |
| --- | --- | --- | --- | --- | --- | --- | --- | --- | --- | --- |
| CCCCCCc1ccc(O)cc1O [4-HR, 4-Hexylresorcinol] | 11 | 38 | significant reduction in melanin content | through direct modulation of Tyrosinase enzyme activity | 28 | 55 | 78 | 78 | – | – |
| CNC(=O)[C@H](Cc1c[nH]c2ccccc12)NC(=O)[C@@H](CC(=O)NO)CC(C)C [Galardin, (R)-N4-Hydroxy-N1-[(S)-2-(1H-indol-3-yl)-1-methylcarbamoyl-ethyl]-2-isobutyl-succinamide] | 7 | 17 | – | – | – | – | – | – | no reduction | modest reduction |
